Source: patent publication US10300071B2, “Compositions and methods for inhibition of mycobacteria” (priority 2014, dated 2019)
≈ marks a conversion by molar mass, not a printed value. Like-named read-outs stand apart in the source and are kept apart here.

Columns and labels:
[1] = target: Mtb AccD6 (Mycobacterium tuberculosis, UniProt P9WQH5); assay: biochemical; assay type: biochemical; conditions: 300 μM malonyl-CoA, inhibitor 10 μM to 2000 μM
[2] = Pharmacokinetic studies in mice, plasma concentration after gavage (LC/MS); conditions: gavage
[3] = system: human fibroblast
[4] = system: S. cerevisiae
[5] = system: Mtb strain mc^2-7000; assay: microbe, parasite or virus in culture; assay type: cell-based, Mycobacterium tuberculosis; conditions: 6 days incubation at 37° C., resazurin, read on the 7th day
[6] = Mycobacterium tuberculosis, 144 h, read-out: MIC

Chain of Mtb AccD6 (P9WQH5 whole entry, looked up): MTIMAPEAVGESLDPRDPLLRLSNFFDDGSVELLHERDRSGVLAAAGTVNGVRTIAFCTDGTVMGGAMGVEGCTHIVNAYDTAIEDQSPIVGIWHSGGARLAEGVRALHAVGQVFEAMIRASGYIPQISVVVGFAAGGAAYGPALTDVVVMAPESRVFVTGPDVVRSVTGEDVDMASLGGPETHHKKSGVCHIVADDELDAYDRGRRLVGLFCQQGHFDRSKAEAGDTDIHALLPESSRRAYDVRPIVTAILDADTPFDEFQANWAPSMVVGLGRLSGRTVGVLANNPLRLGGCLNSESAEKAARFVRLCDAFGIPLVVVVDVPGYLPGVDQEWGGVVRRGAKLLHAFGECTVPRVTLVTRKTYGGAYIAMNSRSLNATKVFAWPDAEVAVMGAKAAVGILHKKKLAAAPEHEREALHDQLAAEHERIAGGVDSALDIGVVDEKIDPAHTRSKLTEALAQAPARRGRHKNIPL

SMILES | IC50 ([1]; read-out: IC50) | peak plasma concentration (FIG. 8) ([2]; single dose 200 mg/kg, PEG, 90 minutes after gavage) | peak plasma concentration (FIG. 7) ([2]; two doses 100 mg/kg 4 hours apart, canola oil, 30 minutes after gavage) | concentrations at which not toxic, human fibroblast cytotoxicity [3] | concentrations at which not toxic, s. cerevisiae cytotoxicity [4] | MIC [5, 6] | MIC [5] | IC50 [1]
CONC(=O)C(C)c1ccc(Oc2nc3ccc(Cl)cc3s2)cc1 (racemic) [NZ-313, 2-{4-[(6-chloro-1,3-benzothiazol-2-yl)oxy]phenyl}-N-methoxypropanamide] | 320 nM | 1 | approximately 0.69 μL/mg | ≥ 100 µM | ≥ 100 µM | 0.38 µM (≈ 0.138 µg/mL) | – | –
CC(C)NC(=O)Nc1ccc(Oc2nc3ccc(C#N)cc3s2)cc1 [NZ-377, 1-{4-[(6-cyano-1,3-benzothiazol-2-yl)oxy]phenyl}-3-(propan-2-yl)urea] | 7900 nM | – | – | ≥ 100 µM | ≥ 100 µM | – | Not Active | –
CCOC(=O)c1ccc2nc(Oc3ccc(NC(=O)NC(C)C)cc3)sc2c1 [NZ-378, ethyl 2-(4-{[(propan-2-yl)carbamoyl]amino}phenoxy)-1,3-benzothiazole-6-carboxylate] | – | – | – | ≥ 100 µM | ≥ 100 µM | 2.2 µM (≈ 0.879 µg/mL) | – | Not Active
CC(C)NC(=O)Nc1ccc(Oc2nc3ccc(C(F)(F)F)cc3s2)cc1 [NZ-379, 3-(propan-2-yl)-1-(4-{[6-(trifluoromethyl)-1,3-benzothiazol-2-yl]oxy}phenyl)urea] | – | – | – | ≥ 100 µM | ≥ 100 µM | – | Not Active | Not Active
CC(C)NC(=O)Nc1ccc(Oc2nc3ccc(S(C)(=O)=O)cc3s2)cc1 [NZ-380, 1-{4-[(6-methanesulfonyl-1,3-benzothiazol-2-yl)oxy]phenyl}-3-(propan-2-yl)urea] | – | – | – | ≥ 100 µM | ≥ 100 µM | 3.4 µM (≈ 1.38 µg/mL) | – | Not Active
CC(C)NC(=O)Nc1ccc(Oc2nc3ccc(CO)cc3s2)cc1 [NZ-381, 1-(4-{[6-(hydroxymethyl)-1,3-benzothiazol-2-yl]oxy}phenyl)-3-(propan-2-yl)urea] | – | – | – | ≥ 100 µM | ≥ 100 µM | 7.3 µM (≈ 2.61 µg/mL) | – | Not Active
CC(C)NC(=O)Nc1ccc(Oc2nc3cc(F)c(F)cc3s2)cc1 [NZ-382, 1-{4-[(5,6-difluoro-1,3-benzothiazol-2-yl)oxy]phenyl}-3-(propan-2-yl)urea] | 270 to 350 nM | – | – | ≥ 100 µM | 50 to 100 µM | – | Not Active | –
CNC(=O)Cc1ccc(Oc2nc3ccc(Cl)cc3s2)cc1 [NZ-383, 2-{4-[(6-chloro-1,3-benzothiazol-2-yl)oxy]phenyl}-N-methylacetamide] | 800 to 1170 nM | – | – | ≥ 100 µM | ≥ 100 µM | 3.9 µM (≈ 1.3 µg/mL) | – | –
CNC(=O)Cc1ccc(Oc2nc3ccc(F)cc3s2)cc1 [NZ-385, 2-{4-[(6-fluoro-1,3-benzothiazol-2-yl)oxy]phenyl}-N-methylacetamide] | 870 nM | – | – | ≥ 100 µM | ≥ 100 µM | 3 µM (≈ 0.949 µg/mL) | – | –
CNC(=O)C(C)c1ccc(Oc2nc3ccc(F)cc3s2)cc1 (stereo not drawn) [NZ-386, 2-{4-[(6-fluoro-1,3-benzothiazol-2-yl)oxy]phenyl}-N-methylpropanamide] | 620 nM | – | – | ≥ 100 µM | ≥ 100 µM | 1.1 to 2.1 µM (≈ 0.363 to 0.694 µg/mL) | – | –
CNC(=O)C(C)c1ccc(Oc2nc3cc(F)c(F)cc3s2)cc1 (stereo not drawn) [NZ-387, 2-{4-[(5,6-difluoro-1,3-benzothiazol-2-yl)oxy]phenyl}-N-methylpropanamide] | 260 nM | – | – | ≥ 100 µM | ≥ 100 µM | 2.7 to 8 µM (≈ 0.941 to 2.79 µg/mL) | – | –
CC(C)NC(=O)N(C)c1ccc(Oc2nc3ccc(Cl)cc3s2)cc1 [NZ-388, 1-{4-[(6-chloro-1,3-benzothiazol-2-yl)oxy]phenyl}-1-methyl-3-(propan-2-yl)urea] | 3000 nM | – | – | ≥ 100 µM | ≥ 100 µM | 2.1 µM (≈ 0.789 µg/mL) | – | –
CNC(=O)Cc1ccc(Oc2nc3ccc(Cl)cc3s2)cc1O [NZ-389, 2-{4-[(6-chloro-1,3-benzothiazol-2-yl)oxy]-2-hydroxyphenyl}-N-methylacetamide] | 210 nM | – | – | ≥ 100 µM | ≥ 100 µM | 1.2 to 2.2 µM (≈ 0.419 to 0.767 µg/mL) | – | –
CNC(=O)Cc1ccc(O)cc1Oc1nc2ccc(Cl)cc2s1 [NZ-390, 2-{2-[(6-chloro-1,3-benzothiazol-2-yl)oxy]-4-hydroxyphenyl}-N-methylacetamide] | 15400 nM | – | – | ≥ 100 µM | ≥ 100 µM | – | Not Active | –
CC(C)NC(=O)Nc1ccc(Oc2nc3ccc(Cl)cc3s2)c[n+]1[O-] [NZ-391, 1-{5-[(6-chloro-1,3-benzothiazol-2-yl)oxy]-1-oxo-1λ^5-pyridin-2-yl}-3-(propan-2-yl)urea] | – | – | – | ≥ 100 µM | ≥ 100 µM | – | Not Active | Not Active
CNC(=O)Cc1ccc(Oc2nc3ccc(Cl)cc3s2)cc1OC [NZ-392, 2-{4-[(6-chloro-1,3-benzothiazol-2-yl)oxy]-2-methoxyphenyl}-N-methylacetamide] | 7180 nM | – | – | ≥ 100 µM | ≥ 100 µM | 7.28 µM (≈ 2.64 µg/mL) | – | –
CNC(=O)C(C)c1ccc(Oc2nc3cc(Cl)c(Cl)cc3s2)cc1 (stereo not drawn) [NZ-394, 2-{4-[(5,6-dichloro-1,3-benzothiazol-2-yl)oxy]phenyl}-N-methylpropanamide] | 980 nM | – | – | ≥ 100 µM | ≥ 100 µM | – | Not active | –
CNC(=O)Cc1ccc(Oc2nc3ccc(F)cc3s2)cc1O [NZ-395, 2-{4-[(6-fluoro-1,3-benzothiazol-2-yl)oxy]-2-hydroxyphenyl}-N-methylacetamide] | 160 nM | – | – | ≥ 100 µM | ≥ 100 µM | 0.6 to 0.9 µM (≈ 0.199 to 0.299 µg/mL) | – | –
COC(=O)Cn1ccc(Oc2nc3ccc(Cl)cc3s2)cc1=O [NZ-396, methyl 2-{4-[(6-chloro-1,3-benzothiazol-2-yl)oxy]-2-oxo-1,2-dihydropyridin-1-yl}acetate] | 11300 nM | – | – | ≥ 100 µM | ≥ 100 µM | 6.19 to 8.6 µM | – | –
O=C(O)Cn1ccc(Oc2nc3ccc(Cl)cc3s2)cc1=O [NZ-397, 2-{4-[(6-chloro-1,3-benzothiazol-2-yl)oxy]-2-oxo-1,2-dihydropyridin-1-yl}acetic acid] | 450 nM | – | – | ≥ 100 µM | ≥ 100 µM | – | Not Active | –
COC(=O)Cc1ccc(Oc2nc3cc(F)c(F)cc3s2)cc1 [NZ-398, methyl 2-{4-[(5,6-difluoro-1,3-benzothiazol-2-yl)oxy]phenyl}acetate] | 3600 nM | – | – | ≥ 100 µM | ≥ 100 µM | 0.89 µM | – | –
O=C(O)Cc1ccc(Oc2nc3cc(F)c(F)cc3s2)cc1 [NZ-399, 2-{4-[(5,6-difluoro-1,3-benzothiazol-2-yl)oxy]phenyl}acetic acid] | 180 nM | – | – | ≥ 100 µM | ≥ 100 µM | 1.36 µM (≈ 0.437 µg/mL) | – | –
CNC(=O)Cc1ccc(Oc2nc3cc(F)c(F)cc3s2)cc1 [NZ-400, 2-{4-[(5,6-difluoro-1,3-benzothiazol-2-yl)oxy]phenyl}-N-methylacetamide] | 210 nM | – | – | ≥ 100 µM | ≥ 100 µM | 0.61 µM (≈ 0.204 µg/mL) | – | –
CNC(=O)Cc1ccc(Oc2nc3cc(F)c(F)cc3s2)cc1O [NZ-401, 2-{4-[(5,6-difluoro-1,3-benzothiazol-2-yl)oxy]-2-hydroxyphenyl}-N-methylacetamide] | 120 nM | – | – | ≥ 100 µM | ≥ 100 µM | 0.54 µM (≈ 0.189 µg/mL) | – | –
CNC(=O)Cc1ccc(Oc2cnc3cc(Cl)ccc3n2)cc1O [NZ-402, 2-{4-[(6-chloroquinoxalin-2-yl)oxy]-2-hydroxyphenyl}-N-methylacetamide] | 210 nM | – | – | ≥ 100 µM | ≥ 100 µM | 2.16 µM (≈ 0.743 µg/mL) | – | –
